Measurements as given in ChEMBL document CHEMBL2157955, “Design, synthesis and anticancer activity of 1-acyl-3-amino-1,4,5,6-tetrahydropyrrolo[3,4-c]pyrazole derivatives” (Bioorg Med Chem Lett, 2012).

Experiments:
HCT-116 [1] = test: Cytotoxicity against human HCT116 cells after 48 hrs by SRB assay; format: functional, cell-based; conditions: HCT-116, 48 h
[2] = Cytotoxicity against human L02 cells after 48 hrs by SRB assay; format: cell-based; conditions: L02, 48 h
HT-29 [3] = test: Cytotoxicity against human HT-29 cells after 48 hrs by SRB assay; format: functional, cell-based; conditions: HT-29, 48 h
MCF7 [4] = test: Cytotoxicity against human MCF7 cells after 48 hrs by SRB assay; format: functional, cell-based; conditions: MCF7, 48 h
HepG2 [5] = test: Cytotoxicity against human HepG2 cells after 48 hrs by SRB assay; format: functional, cell-based; conditions: HepG2, 48 h
A549 [6] = test: Cytotoxicity against human A549 cells after 48 hrs by SRB assay; format: functional, cell-based; conditions: A549, 48 h
HT-1080 [7] = test: Cytotoxicity against human HT1080 cells after 48 hrs by SRB assay; format: functional, cell-based; conditions: HT-1080, 48 h
[8] = molecular target: Cyclin-dependent kinase 1/cyclin B1 (Homo sapiens) (UniProt P06493+P14635); test: Inhibition of human CDK1/cyclinB at 10 uM; format: protein-complex assay
[9] = molecular target: CDK9/cyclin T1 (Homo sapiens) (UniProt O60563+P50750); test: Inhibition of human CDK9/CyclinT1 at 10 uM; format: protein-complex assay
HT-29 [10] = test: Ratio of (R)-roscovitine IC50 to compound IC50 for human HT-29 cells; format: functional
[11] = molecular target: Epidermal growth factor receptor (Homo sapiens) (UniProt P00533); test: Inhibition of human EGFR at 10 uM
HepG2 [12] = test: Ratio of (R)-roscovitine IC50 to compound IC50 for human HepG2 cells; format: functional
A549 [13] = test: Ratio of (R)-roscovitine IC50 to compound IC50 for human A549 cells; format: functional
[14] = molecular target: Glycogen synthase kinase-3 beta (Homo sapiens) (UniProt P49841); test: Inhibition of human GSK3beta at 10 uM
[15] = molecular target: Cyclin-dependent kinase 7/ cyclin H (Homo sapiens) (UniProt P51946+P50613); test: Inhibition of human CDK7/CyclinH/MAT1 at 10 uM; format: protein-complex assay
HCT-116 [16] = test: Ratio of (R)-roscovitine IC50 to compound IC50 for human HCT116 cells; format: functional
[17] = molecular target: Cyclin-dependent kinase 2/cyclin E (Homo sapiens) (UniProt P24864+P24941+O96020); test: Inhibition of human CDK2/cyclin E at 10 uM; format: protein-complex assay
[18] = molecular target: Serine/threonine-protein kinase mTOR (Homo sapiens) (UniProt P42345); test: Inhibition of human mTOR at 10 uM
[19] = molecular target: Cyclin-dependent kinase 2/cyclin A (Homo sapiens) (UniProt P24941+P20248+P78396); test: Inhibition of human CDK2/cyclin A at 10 uM; format: protein-complex assay
[20] = molecular target: Aurora kinase B (Homo sapiens) (UniProt Q96GD4); test: Inhibition of human Aurora B kinase at 10 uM
[21] = molecular target: Cyclin-dependent kinase 5/CDK5 activator 1 (Homo sapiens) (UniProt Q00535+Q15078); test: Inhibition of human CDK5/p25 at 10 uM; format: protein-complex assay
MCF7 [22] = test: Ratio of (R)-roscovitine IC50 to compound IC50 for human MCF7 cells; format: functional
[23] = molecular target: T1, Aurora kinase A (Homo sapiens) (UniProt O14965); test: Inhibition of human Aurora A kinase at 10 uM
T1 sequence (whole entry): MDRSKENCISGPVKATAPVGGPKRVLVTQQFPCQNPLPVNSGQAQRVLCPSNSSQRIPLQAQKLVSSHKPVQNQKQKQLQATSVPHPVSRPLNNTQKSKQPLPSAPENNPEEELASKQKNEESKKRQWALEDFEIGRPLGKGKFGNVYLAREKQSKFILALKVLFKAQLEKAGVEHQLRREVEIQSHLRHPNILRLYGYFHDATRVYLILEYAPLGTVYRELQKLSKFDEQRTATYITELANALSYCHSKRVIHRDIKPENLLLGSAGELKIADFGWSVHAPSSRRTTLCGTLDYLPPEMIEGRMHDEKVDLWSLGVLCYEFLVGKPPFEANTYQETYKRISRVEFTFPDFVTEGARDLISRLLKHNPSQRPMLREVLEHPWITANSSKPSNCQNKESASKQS

HT-1080 [24] = test: Ratio of (R)-roscovitine IC50 to compound IC50 for human HT1080 cells; format: functional

Cyclin-dependent kinase 1/cyclin B1 (Homo sapiens), sequence (P06493 whole entry, looked up): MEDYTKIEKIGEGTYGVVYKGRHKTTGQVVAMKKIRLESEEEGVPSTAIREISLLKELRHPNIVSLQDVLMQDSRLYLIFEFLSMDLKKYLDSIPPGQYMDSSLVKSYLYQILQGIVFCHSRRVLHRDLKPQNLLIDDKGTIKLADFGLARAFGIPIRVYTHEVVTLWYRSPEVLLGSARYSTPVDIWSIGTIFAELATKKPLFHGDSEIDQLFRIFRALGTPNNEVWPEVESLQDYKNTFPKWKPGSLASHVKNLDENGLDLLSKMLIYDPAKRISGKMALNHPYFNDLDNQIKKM
Cyclin-dependent kinase 1/cyclin B1 (Homo sapiens), sequence (P14635 whole entry, looked up): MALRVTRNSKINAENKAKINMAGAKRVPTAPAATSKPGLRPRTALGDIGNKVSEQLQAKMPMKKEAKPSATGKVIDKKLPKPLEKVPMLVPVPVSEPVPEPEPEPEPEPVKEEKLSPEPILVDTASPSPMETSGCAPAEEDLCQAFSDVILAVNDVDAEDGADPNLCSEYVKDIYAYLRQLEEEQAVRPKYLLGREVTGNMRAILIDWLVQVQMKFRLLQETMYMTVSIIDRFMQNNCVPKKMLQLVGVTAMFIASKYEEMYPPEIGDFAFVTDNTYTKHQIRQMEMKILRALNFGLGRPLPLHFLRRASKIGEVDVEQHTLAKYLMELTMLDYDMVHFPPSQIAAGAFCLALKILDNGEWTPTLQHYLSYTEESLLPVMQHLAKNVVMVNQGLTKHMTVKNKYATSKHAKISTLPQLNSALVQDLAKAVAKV
Glycogen synthase kinase-3 beta (Homo sapiens), sequence (P49841 whole entry, looked up): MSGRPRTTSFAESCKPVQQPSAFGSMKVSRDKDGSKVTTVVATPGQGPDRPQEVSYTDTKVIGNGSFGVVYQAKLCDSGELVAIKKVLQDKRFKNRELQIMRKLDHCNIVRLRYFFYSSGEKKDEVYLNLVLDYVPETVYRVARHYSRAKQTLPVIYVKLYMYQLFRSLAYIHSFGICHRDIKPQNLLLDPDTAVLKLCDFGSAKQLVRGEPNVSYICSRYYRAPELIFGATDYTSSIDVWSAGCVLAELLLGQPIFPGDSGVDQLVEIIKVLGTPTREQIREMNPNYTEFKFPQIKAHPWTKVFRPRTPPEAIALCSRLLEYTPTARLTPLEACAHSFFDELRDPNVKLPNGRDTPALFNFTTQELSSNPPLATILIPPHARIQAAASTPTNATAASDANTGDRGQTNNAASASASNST
Cyclin-dependent kinase 5/CDK5 activator 1 (Homo sapiens), sequence (Q00535 whole entry): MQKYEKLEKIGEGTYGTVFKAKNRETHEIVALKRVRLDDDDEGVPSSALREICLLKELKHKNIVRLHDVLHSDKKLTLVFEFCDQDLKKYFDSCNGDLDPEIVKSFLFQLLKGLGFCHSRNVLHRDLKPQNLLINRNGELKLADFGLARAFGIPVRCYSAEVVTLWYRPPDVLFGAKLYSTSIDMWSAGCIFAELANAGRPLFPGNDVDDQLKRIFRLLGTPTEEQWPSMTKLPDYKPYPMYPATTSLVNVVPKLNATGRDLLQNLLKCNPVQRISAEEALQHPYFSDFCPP
Cyclin-dependent kinase 5/CDK5 activator 1 (Homo sapiens), sequence (Q15078 99-307 partner limits assumed): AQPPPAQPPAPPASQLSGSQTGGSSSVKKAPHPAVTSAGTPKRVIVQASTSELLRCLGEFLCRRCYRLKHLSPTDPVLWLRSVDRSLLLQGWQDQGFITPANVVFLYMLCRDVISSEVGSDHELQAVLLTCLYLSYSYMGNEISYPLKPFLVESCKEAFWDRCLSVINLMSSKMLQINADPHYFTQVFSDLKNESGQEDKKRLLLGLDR
Epidermal growth factor receptor (Homo sapiens), sequence (P00533 whole entry): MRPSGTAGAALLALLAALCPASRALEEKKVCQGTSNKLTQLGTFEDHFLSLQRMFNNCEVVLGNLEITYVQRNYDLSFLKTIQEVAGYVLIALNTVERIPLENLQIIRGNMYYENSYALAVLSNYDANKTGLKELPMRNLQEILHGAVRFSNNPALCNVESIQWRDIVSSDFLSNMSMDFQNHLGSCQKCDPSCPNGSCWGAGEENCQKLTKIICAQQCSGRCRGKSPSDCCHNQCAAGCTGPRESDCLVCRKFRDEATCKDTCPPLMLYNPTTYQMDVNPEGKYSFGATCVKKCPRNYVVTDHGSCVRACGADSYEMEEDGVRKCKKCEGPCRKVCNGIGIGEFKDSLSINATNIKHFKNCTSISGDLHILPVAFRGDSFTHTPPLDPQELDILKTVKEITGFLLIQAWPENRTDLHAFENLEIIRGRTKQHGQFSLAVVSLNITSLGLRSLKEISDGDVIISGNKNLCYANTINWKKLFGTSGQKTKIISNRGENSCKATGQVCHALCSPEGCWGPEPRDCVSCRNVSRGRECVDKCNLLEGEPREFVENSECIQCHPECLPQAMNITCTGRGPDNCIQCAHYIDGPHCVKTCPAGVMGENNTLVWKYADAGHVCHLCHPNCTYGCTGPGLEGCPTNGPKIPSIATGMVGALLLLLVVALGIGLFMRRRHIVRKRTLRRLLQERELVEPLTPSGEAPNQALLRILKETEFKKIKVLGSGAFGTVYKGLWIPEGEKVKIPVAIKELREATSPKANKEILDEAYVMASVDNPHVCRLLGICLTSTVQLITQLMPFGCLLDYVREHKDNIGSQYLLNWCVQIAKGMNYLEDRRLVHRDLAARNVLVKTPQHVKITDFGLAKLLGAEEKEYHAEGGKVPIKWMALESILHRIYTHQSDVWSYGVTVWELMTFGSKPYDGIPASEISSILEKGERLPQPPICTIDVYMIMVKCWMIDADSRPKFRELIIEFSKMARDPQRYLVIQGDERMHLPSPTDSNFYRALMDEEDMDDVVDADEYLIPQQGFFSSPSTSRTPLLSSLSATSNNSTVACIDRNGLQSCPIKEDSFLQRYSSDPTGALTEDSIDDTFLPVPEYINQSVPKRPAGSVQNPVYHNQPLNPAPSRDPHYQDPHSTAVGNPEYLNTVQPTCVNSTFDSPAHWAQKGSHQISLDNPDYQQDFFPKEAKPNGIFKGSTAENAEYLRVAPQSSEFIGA
Aurora kinase B (Homo sapiens), sequence (Q96GD4 whole entry): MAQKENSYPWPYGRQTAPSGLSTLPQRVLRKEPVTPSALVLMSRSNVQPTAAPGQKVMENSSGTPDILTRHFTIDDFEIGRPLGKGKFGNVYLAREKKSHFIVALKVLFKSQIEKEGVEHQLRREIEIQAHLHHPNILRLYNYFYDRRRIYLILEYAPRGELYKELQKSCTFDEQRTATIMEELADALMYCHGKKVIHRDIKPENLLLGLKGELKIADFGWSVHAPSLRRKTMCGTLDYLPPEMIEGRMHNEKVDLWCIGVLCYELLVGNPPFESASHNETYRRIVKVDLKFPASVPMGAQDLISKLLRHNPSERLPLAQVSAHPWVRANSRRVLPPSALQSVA

## COc1ccc(C(=O)Nc2nn(C(=O)c3ccccc3)c3c2CN(C(=O)c2ccccc2)C3)cc1
HCT-116 [1]
  IC50: 31.3 µM

## O=C(Nc1nn(C(=O)C2CC2)c2c1CN(C(=O)c1ccccc1)C2)c1ccccc1
HCT-116 [1]
  IC50: 1.24 µM

## CC(=O)n1nc(NC(=O)c2ccccc2)c2c1CN(S(=O)(=O)N(C)C)C2
HCT-116 [1]
  IC50: 35.3 µM

## CC(=O)n1nc(NC(=O)c2ccccc2)c2c1CN(C(=O)c1cccc(Cl)c1)C2
HCT-116 [1]
  IC50: 17.4 µM

## O=C(Nc1n[nH]c2c1CN(C(=O)c1ccccc1)C2)c1ccc(F)cc1
HCT-116 [1]
  IC50: 3.19 µM

## O=C(Nc1nn(C(=O)c2ccccc2)c2c1CN(C(=O)c1ccccc1)C2)c1ccccc1
HCT-116 [1]
  IC50: 1.4 µM

## O=C(Nc1n[nH]c2c1CN(C(=O)c1ccccc1)C2)c1ccccc1
HCT-116 [1]
  IC50: 6.4 µM

## CCC(=O)n1nc(NC(=O)c2ccccc2)c2c1CN(C(=O)c1ccccc1)C2
[2]
  IC50: 2470 nM
HT-29 [3]
  IC50: 910 nM
HCT-116 [1]
  IC50: 1.06 µM
MCF7 [4]
  IC50: 1070 nM
HepG2 [5]
  IC50: 860 nM

## CC(C)C(=O)n1nc(NC(=O)c2ccccc2)c2c1CN(C(=O)c1ccccc1)C2
HCT-116 [1]
  IC50: 2.02 µM

## CCCCNC(=O)N1Cc2c(NC(=O)c3ccc(OC)cc3)nn(C(=O)c3ccccc3)c2C1
HCT-116 [1]
  IC50: 25.3 µM

## CC(=O)n1nc(NC(=O)c2ccccc2)c2c1CN(C(=O)c1cccc([N+](=O)[O-])c1)C2
HCT-116 [1]
  IC50: 17.3 µM

## COc1ccc(C(=O)Nc2n[nH]c3c2CN(C(=O)c2ccccc2)C3)cc1
HCT-116 [1]
  IC50: 13.6 µM

## CC(=O)n1nc(NC(=O)c2ccccc2)c2c1CN(C(=O)C1CCC(C)CC1)C2 (stereo not drawn)
HCT-116 [1]
  IC50: 12.2 µM

## CC(=O)n1nc(NC(=O)c2ccccc2)c2c1CN(C(=O)c1ccncc1)C2
HCT-116 [1]
  IC50: 10 µM

## O=C(Nc1nn(C(=O)C2CC2)c2c1CN(C(=O)c1ccccc1)C2)c1ccc(F)cc1
HCT-116 [1]
  IC50: 2.28 µM

## CCCCNC(=O)N1Cc2c(NC(=O)c3ccc(C)cc3)nn(C(=O)C3CC3)c2C1
HCT-116 [1]
  IC50: 17.6 µM

## CC(=O)n1nc(NC(=O)c2ccccc2)c2c1CN(C(=O)c1ccc([N+](=O)[O-])cc1)C2
HCT-116 [1]
  IC50: 16.2 µM

## COc1ccc(C(=O)Nc2nn(C(=O)C3CC3)c3c2CN(C(=O)c2ccccc2)C3)cc1
HCT-116 [1]
  IC50: 5.18 µM

## CCCCNC(=O)N1Cc2c(NC(=O)c3ccccc3)nn(C(=O)c3ccccc3)c2C1
HCT-116 [1]
  IC50: 7.47 µM

## CCCCNC(=O)N1Cc2c(NC(=O)c3ccc(OC)cc3)nn(C(=O)C3CC3)c2C1
HCT-116 [1]
  IC50: 65.5 µM

## CC[C@H](CO)Nc1nc(NCc2ccccc2)c2ncn(C(C)C)c2n1 [SELICICLIB]
A549 [6]
  IC50: 14.1 µM
[2]
  IC50: 20500 nM
HT-29 [3]
  IC50: 11600 nM
HCT-116 [1]
  IC50: 16.4 µM
MCF7 [4]
  IC50: 12200 nM
HT-1080 [7]
  IC50: 9.62 µM
HepG2 [5]
  IC50: 15500 nM

## CCCCNC(=O)N1Cc2c(NC(=O)Cc3ccccc3)nn(C(=O)c3ccccc3)c2C1
HCT-116 [1]
  IC50: 43.1 µM

## CC(=O)n1nc(NC(=O)c2ccccc2)c2c1CN(C(=O)CCl)C2
HCT-116 [1]
  IC50: 4.1 µM

## CC(=O)n1nc(NC(=O)c2ccccc2)c2c1CN(C(=O)c1ccccc1)C2
[8]
  inhibition: 30%
A549 [6]
  IC50: 1.74 µM
[2]
  IC50: 2220 nM
[9]
  inhibition: 10%
HT-29 [3]
  IC50: 920 nM
HT-29 [10]
  Ratio IC50: 4
[11]
  inhibition: 8%
HepG2 [12]
  Ratio IC50: 4
A549 [13]
  Ratio IC50: 4
HCT-116 [1]
  IC50: 0.58 µM
[14]
  inhibition: 67%
[15]
  inhibition: 5%
HCT-116 [16]
  Ratio IC50: 28
MCF7 [4]
  IC50: 990 nM
[17]
  inhibition: 30%
[18]
  inhibition: 3%
[19]
  inhibition: 17%
[20]
  inhibition: 32%
[21]
  inhibition: 72%
MCF7 [22]
  Ratio IC50: 4
[23]
  inhibition: 33%
HT-1080 [24]
  Ratio IC50: 4
HT-1080 [7]
  IC50: 2.13 µM
HepG2 [5]
  IC50: 810 nM

## CCCCNC(=O)N1Cc2c(NC(=O)Cc3ccccc3)nn(C(=O)C3CC3)c2C1
HCT-116 [1]
  IC50: 31.2 µM

## CCCCNC(=O)N1Cc2c(NC(=O)c3ccc(F)cc3)nn(C(=O)c3ccccc3)c2C1
HCT-116 [1]
  IC50: 30.8 µM

## CC(=O)n1nc(NC(=O)c2ccccc2)c2c1CN(C(=O)N(C)C)C2
HCT-116 [1]
  IC50: 70.3 µM

## CCCCNC(=O)N1Cc2c(NC(=O)c3ccc(C)cc3)nn(C(=O)c3ccccc3)c2C1
HCT-116 [1]
  IC50: 23.2 µM

## CC(=O)n1nc(NC(=O)c2ccccc2)c2c1CN(C(=O)c1cccc(F)c1)C2
HCT-116 [1]
  IC50: 21.9 µM

## CCCCNC(=O)N1Cc2c(NC(=O)c3ccc(F)cc3)nn(C(=O)C3CC3)c2C1
HCT-116 [1]
  IC50: 23.2 µM

## CC(=O)n1nc(NC(=O)c2ccccc2)c2c1CN(C(=O)c1ccc(-c3ccccc3)cc1)C2
HCT-116 [1]
  IC50: > 90 µM

## CC(=O)n1nc(NC(=O)c2ccccc2)c2c1CN(S(=O)(=O)c1ccc([N+](=O)[O-])cc1)C2
HCT-116 [1]
  IC50: 22.3 µM

## O=C(Nc1nn(C(=O)c2ccccc2)c2c1CN(C(=O)c1ccccc1)C2)c1ccc(F)cc1
HCT-116 [1]
  IC50: 2.78 µM

## O=C(Nc1nn(C(=O)Cc2ccccc2)c2c1CN(C(=O)c1ccccc1)C2)c1ccccc1
HCT-116 [1]
  IC50: 2.61 µM

## CCCCNC(=O)N1Cc2c(NC(=O)c3ccccc3)nn(C(=O)C3CC3)c2C1
HCT-116 [1]
  IC50: 3.47 µM
